Test results taken from ChEMBL document CHEMBL4619753, “Treating Cancer by Spindle Assembly Checkpoint Abrogation: Discovery of Two Clinical Candidates, BAY 1161909 and BAY 1217389, Targeting MPS1 Kinase” (J Med Chem, 2020).

system: not listed separately; experiment: Dose normalized AUC in Wistar rat at 0.2 to 1 mg/kg, po measured up to 24 hrs by HPLC-MS-MS analysis; type: ADME, organism-based; conditions: in vivo

| SMILES | AUC/dose |
| --- | --- |
| COc1ccccc1Nc1nc2ccc(-c3ccc(NC(=O)Cc4ccccc4)cc3)cn2n1 | 0.066 kg·h/L |
| COc1cc(C(=O)N2CC3(COC3)C2)ccc1Nc1nc2ccc(-c3ccc(NC(=O)Cc4ccc(F)cc4)cc3)cn2n1 | 0.049 kg·h/L |
| COc1cc(C(=O)N2CCOCC2)ccc1Nc1nc2ccc(-c3ccc(NC(=O)Cc4ccc(F)cc4)cc3)cn2n1 | 0.81 kg·h/L |

same assay, conditions: in vivo, BLD = below limit of detection

| SMILES | AUC/dose |
| --- | --- |
| CC(C)CNc1nccn2c(-c3ccc(C(=O)NC4CC4)cc3)cnc12 | Bld |

system: HeLa; experiment: cells; conditions: Homo sapiens, 96 h
Description: Antiproliferative activity against human HeLa cells after 96 hrs by crystal violet staining based assay

| SMILES | IC50 |
| --- | --- |
| COc1cc(S(C)(=O)=O)ccc1Nc1nc2ccc(-c3ccc(NC(=O)C4(c5ccc(F)cc5)CC4)cc3)cn2n1 | > 10000 nM |
| O=C(Cc1ccc(F)cc1)Nc1ccc(-c2ccc3nc(Nc4ccc(C(=O)N5CCOCC5)cc4)nn3c2)cc1 | 725 nM |
| COc1cc(C(=O)N(C)C)ccc1Nc1nc2ccc(-c3ccc(NC(=O)Cc4ccc(F)cc4)cc3)cn2n1 | 200 nM |
| COc1cc(S(C)(=O)=O)ccc1Nc1nc2ccc(-c3ccc(NC(=O)[C@@H](C)c4ccc(F)cc4)cc3)cn2n1 | 7000 nM |
| COc1cc(C(=O)N2CC(F)C2)ccc1Nc1nc2ccc(-c3ccc(NC(=O)Cc4ccc(F)cc4)cc3)cn2n1 | 37 nM |
| COc1ccccc1Nc1nc2ccc(-c3cc(C)c(O)c(C)c3)cn2n1 | 5900 nM |
| CC(C)CNc1cc(-c2ccccc2)cc2c1ncn2-c1ccc(C(=O)NC2CC2)cc1 | 2480 nM |
| CC(C)CNc1nc(-c2ccccc2)cc2c(-c3ccc(C(=O)NC4CC4)cc3)cnn12 | 7730 nM |
| COc1ccccc1Nc1nc2ccc(-c3ccc(NC(=O)Cc4ccccc4)cc3)cn2n1 | 2300 nM |
| CC(C)CNc1cc(-c2ccccc2)nn2c(-c3ccc(C(=O)NC4CC4)cc3)cnc12 | 1550 nM |
| COc1cc(C(=O)N2CC3(COC3)C2)ccc1Nc1nc2ccc(-c3ccc(NC(=O)Cc4ccc(F)cc4)cc3)cn2n1 | 85 nM |
| CC(C)CNc1cccc2c1ncn2-c1ccc(C(=O)NC2CC2)cc1 | > 10000 nM |
| CC(C)CNc1nc(-c2ccccc2)nn2c(-c3ccc(C(=O)NC4CC4)cc3)cnc12 | > 10000 nM |
| CCC(C(=O)Nc1ccc(-c2ccc3nc(Nc4ccc(S(C)(=O)=O)cc4OC)nn3c2)cc1)c1ccc(F)cc1 (racemic) | 7500 nM |
| COc1cc(C(=O)N2CCOCC2)ccc1Nc1nc2ccc(-c3ccc(NC(=O)Cc4ccc(F)cc4)cc3)cn2n1 | 140 nM |

system: not listed separately; experiment: Oral bioavailability in Wistar rat at 0.2 to 1 mg/kg measured up to 24 hrs by HPLC-MS-MS analysis; type: ADME, organism-based; conditions: in vivo

| SMILES | bioavailability |
| --- | --- |
| COc1ccccc1Nc1nc2ccc(-c3ccc(NC(=O)Cc4ccccc4)cc3)cn2n1 | 9% |
| COc1cc(C(=O)N2CCOCC2)ccc1Nc1nc2ccc(-c3ccc(NC(=O)Cc4ccc(F)cc4)cc3)cn2n1 | 20% |
